From the supplement of paper PMC13386468

How the values were obtained:
Assay in all cases: IC50 for competition of protein binding to Kinobeads
Settings in all cases: assay detail: Kinobeads competition in P. falciparum blood-stage lysate
[1] = target: UniProt A0A144A2H0
[2] = target: UniProt C0H491
[3] = target: UniProt C0H529
[4] = target: UniProt C6KSX2
[5] = target: UniProt C6KT25
[6] = target: UniProt C6KTB4
[7] = target: UniProt O96271
[8] = target: UniProt O97231
[9] = target: UniProt Q5MYR6
[10] = target: UniProt Q76NN6
[11] = target: UniProt Q7K6A0
[12] = target: UniProt Q8I231
[13] = target: UniProt Q8I272
[14] = target: UniProt Q8I2H3
[15] = target: UniProt Q8I2V4
[16] = target: UniProt Q8I2W3
[17] = target: UniProt Q8I2W4
[18] = target: UniProt Q8I2X3
[19] = target: UniProt Q8I305
[20] = target: UniProt Q8I3M5
[21] = target: UniProt Q8I3N3
[22] = target: UniProt Q8I3V8
[23] = target: UniProt Q8I3X4
[24] = target: UniProt Q8I3Z5
[25] = target: UniProt Q8I442
[26] = target: UniProt Q8I4V7
[27] = target: UniProt Q8I4Z4
[28] = target: UniProt Q8I502
[29] = target: UniProt Q8I586
[30] = target: UniProt Q8I5E2
[31] = target: UniProt Q8IBH7
[32] = target: UniProt Q8IBQ6
[33] = target: UniProt Q8IBY4
[34] = target: UniProt Q8ID33
[35] = target: UniProt Q8IDF0
[36] = target: UniProt Q8IDV0
[37] = target: UniProt Q8IDZ6
[38] = target: UniProt Q8IE84
[39] = target: UniProt Q8II27
[40] = target: UniProt Q8IIC9
[41] = target: UniProt Q8IIJ4
[42] = target: UniProt Q8IJM0
[43] = target: UniProt Q8IJN8
[44] = target: UniProt Q8IKN7
[45] = target: UniProt Q8IKZ6
[46] = target: UniProt Q8IL11
[47] = target: UniProt Q8ILI9
[48] = target: UniProt Q8ILL3
[49] = target: UniProt Q8ILS7
[50] = target: UniProt Q8IM38
[51] = target: UniProt Q9TY96
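Further: native unpurified kinases from lysate captured on beads bearing immobilized kinase inhibitors, with bead-bound kinases quantified by mass spectrometry across compound doses.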

Sequence of UniProt Q8IBH7 (Q8IBH7 whole entry): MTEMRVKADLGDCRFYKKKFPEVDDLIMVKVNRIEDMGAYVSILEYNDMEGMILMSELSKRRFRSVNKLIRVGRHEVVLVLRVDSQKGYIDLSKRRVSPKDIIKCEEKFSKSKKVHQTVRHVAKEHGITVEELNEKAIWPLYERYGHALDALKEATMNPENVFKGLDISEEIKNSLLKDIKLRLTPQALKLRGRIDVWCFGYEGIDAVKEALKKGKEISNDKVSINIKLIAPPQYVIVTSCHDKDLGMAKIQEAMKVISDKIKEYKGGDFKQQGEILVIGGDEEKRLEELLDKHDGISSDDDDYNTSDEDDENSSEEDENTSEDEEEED
Sequence of UniProt Q8I3Z5 (Q8I3Z5 whole entry): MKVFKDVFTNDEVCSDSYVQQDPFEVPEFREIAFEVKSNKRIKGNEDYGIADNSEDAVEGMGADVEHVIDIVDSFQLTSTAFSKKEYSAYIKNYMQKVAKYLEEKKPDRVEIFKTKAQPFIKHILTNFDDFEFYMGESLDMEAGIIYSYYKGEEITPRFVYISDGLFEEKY
Sequence of UniProt A0A144A2H0 (A0A144A2H0 whole entry): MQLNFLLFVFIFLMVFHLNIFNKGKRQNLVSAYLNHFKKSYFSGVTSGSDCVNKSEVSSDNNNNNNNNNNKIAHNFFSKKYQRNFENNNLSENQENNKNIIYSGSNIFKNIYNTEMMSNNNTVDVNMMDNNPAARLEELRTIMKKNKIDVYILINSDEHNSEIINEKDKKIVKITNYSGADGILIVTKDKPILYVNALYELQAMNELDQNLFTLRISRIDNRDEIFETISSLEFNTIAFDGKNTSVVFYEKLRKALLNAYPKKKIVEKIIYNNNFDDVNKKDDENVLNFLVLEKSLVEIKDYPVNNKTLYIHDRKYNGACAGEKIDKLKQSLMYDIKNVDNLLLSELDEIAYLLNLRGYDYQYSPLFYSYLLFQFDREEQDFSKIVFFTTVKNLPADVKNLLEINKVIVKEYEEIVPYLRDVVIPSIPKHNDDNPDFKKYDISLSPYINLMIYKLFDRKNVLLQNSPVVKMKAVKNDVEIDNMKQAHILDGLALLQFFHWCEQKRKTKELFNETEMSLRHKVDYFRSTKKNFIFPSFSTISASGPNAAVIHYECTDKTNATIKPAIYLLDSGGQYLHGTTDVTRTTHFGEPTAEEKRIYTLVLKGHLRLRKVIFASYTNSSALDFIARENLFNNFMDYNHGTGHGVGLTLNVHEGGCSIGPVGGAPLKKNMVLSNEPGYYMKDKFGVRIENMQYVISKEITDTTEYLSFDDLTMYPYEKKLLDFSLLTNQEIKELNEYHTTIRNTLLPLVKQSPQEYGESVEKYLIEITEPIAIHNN
Sequence of UniProt O97231 (O97231 whole entry): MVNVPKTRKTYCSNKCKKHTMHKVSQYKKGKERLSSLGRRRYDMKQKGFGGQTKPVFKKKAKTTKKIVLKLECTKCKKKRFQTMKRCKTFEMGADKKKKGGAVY
Sequence of UniProt Q9TY96 (Q9TY96 whole entry): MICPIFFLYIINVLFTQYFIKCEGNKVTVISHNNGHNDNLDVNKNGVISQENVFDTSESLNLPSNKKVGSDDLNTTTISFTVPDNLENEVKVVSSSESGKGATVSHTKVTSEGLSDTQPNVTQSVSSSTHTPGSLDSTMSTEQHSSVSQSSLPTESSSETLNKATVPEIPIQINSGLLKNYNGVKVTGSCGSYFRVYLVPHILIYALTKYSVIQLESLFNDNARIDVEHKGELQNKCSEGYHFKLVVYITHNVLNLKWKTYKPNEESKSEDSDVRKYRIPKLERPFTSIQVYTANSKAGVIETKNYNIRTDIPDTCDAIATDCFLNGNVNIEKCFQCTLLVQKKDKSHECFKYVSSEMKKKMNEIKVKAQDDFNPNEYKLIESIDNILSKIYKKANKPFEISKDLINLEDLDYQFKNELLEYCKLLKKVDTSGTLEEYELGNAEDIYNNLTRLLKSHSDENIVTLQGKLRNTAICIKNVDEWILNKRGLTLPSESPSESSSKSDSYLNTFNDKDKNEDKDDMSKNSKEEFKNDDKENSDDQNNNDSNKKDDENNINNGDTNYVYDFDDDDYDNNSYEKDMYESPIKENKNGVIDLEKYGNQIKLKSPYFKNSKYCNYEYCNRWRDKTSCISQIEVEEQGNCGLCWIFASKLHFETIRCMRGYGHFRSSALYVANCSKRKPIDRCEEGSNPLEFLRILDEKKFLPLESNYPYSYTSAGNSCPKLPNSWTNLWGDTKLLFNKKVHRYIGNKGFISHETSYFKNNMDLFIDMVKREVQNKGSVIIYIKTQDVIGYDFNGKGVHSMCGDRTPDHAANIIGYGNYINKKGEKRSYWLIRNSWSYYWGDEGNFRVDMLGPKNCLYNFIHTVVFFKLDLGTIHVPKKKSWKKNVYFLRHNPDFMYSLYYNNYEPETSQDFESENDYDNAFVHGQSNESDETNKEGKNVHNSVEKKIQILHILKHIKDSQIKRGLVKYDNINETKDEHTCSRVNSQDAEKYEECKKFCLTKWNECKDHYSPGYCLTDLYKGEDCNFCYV
Sequence of UniProt Q8I3X4 (Q8I3X4 whole entry): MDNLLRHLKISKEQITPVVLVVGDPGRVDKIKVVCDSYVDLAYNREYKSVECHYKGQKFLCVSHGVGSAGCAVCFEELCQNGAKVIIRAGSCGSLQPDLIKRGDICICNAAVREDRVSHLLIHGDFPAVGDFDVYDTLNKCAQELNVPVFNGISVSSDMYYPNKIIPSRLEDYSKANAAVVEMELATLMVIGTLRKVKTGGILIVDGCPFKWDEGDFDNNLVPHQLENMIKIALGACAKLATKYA
Sequence of UniProt Q8I2X3 (Q8I2X3 whole entry): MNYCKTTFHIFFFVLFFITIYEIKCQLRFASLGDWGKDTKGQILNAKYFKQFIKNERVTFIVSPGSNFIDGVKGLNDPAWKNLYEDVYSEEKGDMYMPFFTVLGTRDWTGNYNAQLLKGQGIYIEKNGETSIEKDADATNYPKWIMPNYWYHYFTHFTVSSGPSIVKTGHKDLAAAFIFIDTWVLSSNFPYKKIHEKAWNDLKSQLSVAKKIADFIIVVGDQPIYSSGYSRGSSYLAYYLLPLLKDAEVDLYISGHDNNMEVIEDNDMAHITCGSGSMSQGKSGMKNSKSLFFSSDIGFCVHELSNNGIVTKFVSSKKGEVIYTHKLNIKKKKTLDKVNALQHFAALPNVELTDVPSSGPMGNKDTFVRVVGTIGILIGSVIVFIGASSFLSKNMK
Sequence of UniProt Q8IL11 (Q8IL11 whole entry): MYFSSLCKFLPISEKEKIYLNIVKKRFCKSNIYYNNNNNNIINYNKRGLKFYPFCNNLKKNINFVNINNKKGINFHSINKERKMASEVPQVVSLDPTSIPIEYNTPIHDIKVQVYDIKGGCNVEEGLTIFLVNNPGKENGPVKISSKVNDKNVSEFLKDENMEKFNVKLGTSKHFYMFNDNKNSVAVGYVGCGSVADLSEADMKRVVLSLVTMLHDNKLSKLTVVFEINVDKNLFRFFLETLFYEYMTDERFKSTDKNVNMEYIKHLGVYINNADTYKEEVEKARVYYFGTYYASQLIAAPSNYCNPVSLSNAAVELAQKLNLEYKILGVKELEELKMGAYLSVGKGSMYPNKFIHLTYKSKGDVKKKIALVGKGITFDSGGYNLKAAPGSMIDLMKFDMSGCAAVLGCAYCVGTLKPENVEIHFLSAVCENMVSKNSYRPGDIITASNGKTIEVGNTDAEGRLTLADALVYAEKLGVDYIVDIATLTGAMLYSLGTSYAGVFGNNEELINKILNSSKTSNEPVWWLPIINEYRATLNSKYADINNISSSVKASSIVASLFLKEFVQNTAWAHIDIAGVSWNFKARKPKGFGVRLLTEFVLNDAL

SMILES: O=c1[nH]c2ccc(Cl)cc2c(NC2CN3CCC2CC3)c1-c1nc2ccccc2[nH]1 (stereo unspecified) [CHIR-124]
- IC50 [1]: > 20 µM
- IC50 [2]: > 20 µM
- IC50 [3]: > 20 µM
- IC50 [4]: > 20 µM
- IC50 [5]: > 20 µM
- IC50 [6]: > 20 µM
- IC50 [7]: > 20 µM
- IC50 [8]: > 20 µM
- IC50 [9]: > 20 µM
- IC50 [10]: > 20 µM
- IC50 [11]: 0.865 µM
- IC50 [12]: > 20 µM
- IC50 [13]: > 20 µM
- IC50 [14]: > 20 µM
- IC50 [15]: > 20 µM
- IC50 [16]: > 20 µM
- IC50 [17]: > 20 µM
- IC50 [18]: > 20 µM
- IC50 [19]: > 20 µM
- IC50 [20]: > 20 µM
- IC50 [21]: > 20 µM
- IC50 [22]: > 20 µM
- IC50 [23]: > 20 µM
- IC50 [24]: > 20 µM
- IC50 [25]: 9.2 µM
- IC50 [26]: > 20 µM
- IC50 [27]: > 20 µM
- IC50 [28]: > 20 µM
- IC50 [29]: > 20 µM
- IC50 [30]: > 20 µM
- IC50 [31]: > 20 µM
- IC50 [32]: > 20 µM
- IC50 [33]: > 20 µM
- IC50 [34]: > 20 µM
- IC50 [35]: > 20 µM
- IC50 [36]: > 20 µM
- IC50 [37]: > 20 µM
- IC50 [38]: > 20 µM
- IC50 [39]: > 20 µM
- IC50 [40]: > 20 µM
- IC50 [41]: > 20 µM
- IC50 [42]: > 20 µM
- IC50 [43]: > 20 µM
- IC50 [44]: > 20 µM
- IC50 [45]: > 20 µM
- IC50 [46]: > 20 µM
- IC50 [47]: > 20 µM
- IC50 [48]: > 20 µM
- IC50 [49]: > 20 µM
- IC50 [50]: > 20 µM
- IC50 [51]: > 20 µM
